Entries after “also recorded” stand apart in the source; their conditions may differ. No end group written: not given here.
Tests used:
[1] = system: bacteria localization at the surface of the intestinal mucosa; test: Localization of bacteria by FISH with mucin immunostaining, lysis zone (Example 14); assay type: in vivo; conditions: orally administered; compared with mice on a low fat or western diet
Protocol: Immunostaining of mucins and localization of bacteria by FISH Mucus immunostaining was paired with fluorescent in situ hybridization (FISH), as previously described in order to analyze bacteria localization at the surface of the intestinal mucosa. Briefly, colonic tissues (proximal colon, 2nd cm from the cecum) without fecal material were placed in methanol-Carnoy's fixative solution (60% methanol, 30% chloroform, 10% glacial acetic acid) for a minimum of 3 hours at room temperature. Tissues were then washed in methanol 2×30 min, ethanol 2×15 min, ethanol/xylene (1:1), 15 min and xylene 2×15 min, followed by embedding in Paraffin with a vertical orientation. Five μm sections were performed and dewax by preheating at 60° C. for 10 min, followed by xylene 60° C. for 10 min, xylene for 10 min and 99.5% ethanol for 10 minutes. Hybridization step was performed at 50° C. overnight with EUB338 probe (5′-GCTGCCTCCCGTAGGAGT-3′, with a 5′ labeling using Alexa 647) diluted to a final concentration of 10 μg/mL in hybridization buffer (20 mM Tris-HCl, pH 7.4, 0.9 M NaCl, 0.1% SDS, 20% formamide). After washing 10 min in wash buffer (20 mM Tris-HCl, pH 7.4, 0.9 M NaCl) and 3×10 min in PBS, PAP pen (Sigma-Aldrich) was used to mark around the section and block solution (5% fetal bovine serum in PBS) was added for 30 min at 4° C. […]

[2] = system: microbiota of the intestine; test: Therapeutic high fat diet model in diet-induced obese mice, 16S microbial analyses (Example 2); assay type: in vivo
Text: The overall design of the study is shown in FIG. 1, lower panel, “Therapeutic study”. Mice and diets. The experiment elucidates the effect of hBD-2 and HD5 on the microbiota in diet-induced obese mice. A run-in period of 13 weeks where mice were fed a very HFD (60% energy from fat) preceded the intervention. Only mice meeting the criteria of a minimum of 12 gram weight gain (approximately 50% of initial bodyweight) during the run-in period were included in the final analyses. […] They were exposed to all experimental tests, but excluded from the analyses.
Treatment regimen. Before the intervention all mice were MR scanned. Cages of mice were allocated to experimental groups based on their fat mass. All subsequent measures were paired with data from the same mouse before the intervention. A LFD (low fat diet) reference group was running in parallel. As controls for the intervention 2 additional groups were included: a) very HFD and b) LFD. Experimental mice stayed on the very HFD during the intervention. The mice were on the experimental diet for 10 weeks. They were co-housed throughout the experiment, 4 mice per cage, 3 cages per group. All tests ran over 3 days, 1 cage per group per day.
Microbial analyses were carried out to study the microbiota of the intestine. Longitudinal 16S characterization was conducted on 4 paired samples from 60 mice, 240 samples in total. Each mouse was sampled prior to diet change, 1 week post diet change, 4 weeks post diet change and at termination, thus ensuring a thorough characterization of the faecal microbiota as a result of defensin treatment.

PBMC cells = test: PBMC cell viability, Alamar Blue, 24 hours (Example 8); assay type: cell-based, human; conditions: 1, 10 and 40 μg/ml, 0.6 and 20.0 pg/ml LPS
Protocol: FIG. 39. Cell viability of PBMC cells following exposure for 24 hours to Alamar Blue and HD5, hBD-1, hBD-2, hBD-3 and hBD-4 at concentrations of 1, 10 and 40 μg/ml.
PBMC cell viability following exposure for 24 hours to Alamar Blue and HD5,hBD-1, hBD-2, hBD-3 and hBD-4 at concentrations of 1, 10 and 40 μg/ml at 0.6 and 20.0 pg/ml LPS respectively (FIG. 39).

BALB/c mice = test: Therapeutic intervention in murine house dust mite/Freund's complete adjuvant driven model of allergic asthma (Example 6); assay type: in vivo; conditions: for Increase of airway resistance (AHR): vs HDM challenged vehicle
Protocol: Treatment regime: Female 7-10 weeks old BALB/c mice were randomly allocated into 6 study groups one day prior to study start and subcutaneously (SC) sensitized to house dust mite (100 μg HDM in 200 μL saline plus Freund's complete adjuvant in 0.9% saline). Mice were then intranasally (IN) challenged with HDM on day 14 (HDM 25 μg in 50 μL of saline). Dexamethasone was administered orally (1 mg/kg BID; 50 μL phosphate buffered saline (PBS)) on day 14. hBD-2 was administered IN or orally (1.7 mg/kg TID IN; 0.4 mg/kg TID IN; 0.4 mg/kg TID orally, 50 μL phosphate buffered saline) on day 14. The initial dose was administered 60 minutes prior to challenge, and the subsequent two doses approximately 6 hours apart (FIG. 3).
Airway inflammation: At 48 hours post challenge, bronchoalveolar lavage was performed washing the lungs with 3 volumes of cold PBS (0.4; 0.3 and 0.3 mL, total 1 mL). Total and differential leucocyte cell counts were determined on an automated haematological analyser Sysmex XT-2000iV.
Data are represented as airway resistance at […] methacholine and as dose responsive curves. Lung sampling for cytokine analysis: After completion of every BAL, lungs were removed from the thorax, snap frozen in liquid nitrogen and stored frozen at −80 degrees Celsius until analysis of cytokine concentration of IL-1β, TNF-α, IL-6, IL-10 and IFNγ by ELISA.

[3] = hBD-2 intranasal, both doses, dexamethasone 1 mg/kg BID orally

For “human beta defensin 2 (GIGDPVTCLKSGAICHPVFCPRRYKQIGTCGLPGTKCCKKP; ends and bridges not checked; cysteine pairing not given here; listed as Homo sapiens) [hBD-2]”, which “Distance from the intestinal lining to bacterial population (lysis zone)” value [1] is on record?
Its value is “profound effect on the distance”.

And the “Relative abundance of Bifidobacteriaceae” value ([2]; colon, hBD-2 p<0.04)?
The value was “dramatically and statistically significant increased the relative abundance of Bifidobacteriaceae”.

And the “Abundance of Alloprevotella” value ([2]; colon, therapeutic intervention, HD5 p<0.02)?
Its value is “no influence on Alloprevotella abundance”.

And the “Relative abundance of Bifidobacteriaceae” value ([2]; small intestine, hBD-2 p<0.0001)?
Its value is “dramatically and statistically significant increased the relative abundance of Bifidobacteriaceae”.

And the “Toxicity (PBMC cell viability)” value (PBMC cells)?
Its value is “not toxic irrespectively of concentration; also recorded: not to be toxic”.

And the “Total cell count in BALF” value (BALB/c mice; 48 hours post challenge, hBD-2 intranasal, both doses (0.4 mg/kg/day TID and 1.7 mg/kg/day TID), dexamethasone 1 mg/kg BID orally)?
Its value is “significantly inhibited total, neutrophil and macrophage cell counts”.

And the “Eosinophil count in BALF” value (BALB/c mice; [3])?
The value was “trend towards lowering of eosinophils”.

And the “Macrophage count in BALF” value (BALB/c mice; [3])?
The value was “significantly inhibited total, neutrophil and macrophage cell counts”.

And the “Neutrophil count in BALF” value (BALB/c mice; [3])?
The value was “significantly inhibited total, neutrophil and macrophage cell counts”.

What about the “TNF-α level in lung tissue homogenate” value (BALB/c mice; intranasal hBD-2) of the same substance?
Its value is “not significantly different from the control”.

What about the “Decrease of pulmonary compliance” value (BALB/c mice; intranasal hBD-2 TID on day 14) of the same substance?
Its value is “effectively inhibited”.

And the “Increase of airway resistance (AHR)” value (BALB/c mice; intranasal hBD-2 TID on day 14)?
The value was “effectively inhibited increase of airway resistance”.

And the “Decrease of pulmonary compliance” value (BALB/c mice; oral hBD-2 0.4 mg/kg TID on day 14)?
The value was “effectively inhibited”.

What about the “Increase of airway resistance (AHR)” value (BALB/c mice; oral on day 14: hBD-2 0.4 mg/kg TID, dexamethasone 1 mg/kg BID) of the same substance?
The value was “effectively inhibited increase of airway resistance”.

And the “TNF-α level in lung tissue homogenate” value (BALB/c mice; oral: hBD-2 0.4 mg/kg TID, dexamethasone 1 mg/kg BID, vs HDM/vehicle control)?
The value was “significantly reduced TNF-α”.

Reference: US20250009844A1, “MATURATION OF MUCOSAL DEFENSE AND GUT/LUNG FUNCTION IN THE PRETERM INFANT” (Novozymes A/S, priority 2017, published 2025)
